Results from US4407796A, “Modulators of the complement system” (American Cyanamid Company, priority 1981, dated 1983).
Counter-ions that a name gives are not always drawn.

Key:
activated human C1 = activated human C1 (Homo sapiens, UniProt P09871); assay: Test Code 026 (C1 inhibitor); format: biochemical; conditions: serial twofold dilution assay; higher well number indicates higher activity
Description: (§1) An active inhibitor protects C2 from C1 and C4; (ii) Test Code 035 (C3-C9 inhibitor)--This test determines the ability of the late components of human complement (C3-C9) to lyse EAC 142 in the presence of appropriate dilutions of the test compound. An active inhibitor protects EAC 142 from lysis by human C3-C9; (iii) Cap 50 Test--Here, appropriate amounts of the test compound are added to a pool of guinea pig or human serum in vitro, after which the undiluted serum capillary tube assay of U.S. Pat. No. 3,876,376 is run. The concentration of compound inhibiting 50% is reported; and (iv) Guinea Pig Intraperitoneal Test (GPIP)--Guinea pigs weighing about 300 g are dosed intraperitoneally (i.p.) with 200 mg/kg of the test compound dissolved in saline and adjusted to pH 7-8. Approximately 0.4 ml blood samples, taken by orbital sinus puncture 2 hours and 6 hours after injections, are collected directly into centrifuge tubes; 5 ml blood samples, taken by decapitation 24 hours after injection, are collected directly into beakers. The samples are allowed to clot, centrifuged, and the resultant sera are assayed for complement activity using the capillary complement assay. Percent inhibition is calculated by comparison with simultaneous controls. The results of the GPIP appear in Table I together with results of Test Code 026, 035 and Cap 50.

[1] = tested on: late components of human complement (C3-C9); assay: Test Code 035 (C3-C9 inhibitor), lysis of EAC 142; format: biochemical; conditions: serial twofold dilution assay; higher well number indicates higher activity
Description: as §1

human serum complement = conditions: both in vitro and in vivo; cited from earlier work

C1 026 Wells (activated human C1)	Compound	C-Late 035 Wells [1]	anticomplementary activity, judged by reduction in total hemolytic complement activity (human serum complement)
13 Wells	O=S(=O)(O)OC[C@H]1O[C@@H](Sc2ccc(-c3ccc(S[C@@H]4O[C@H](COS(=O)(=O)O)[C@@H](O[C@H]5O[C@H](COS(=O)(=O)O)[C@@H](OS(=O)(=O)O)[C@H](OS(=O)(=O)O)[C@H]5OS(=O)(=O)O)[C@H](OS(=O)(=O)O)[C@H]4OS(=O)(=O)O)cc3)cc2)[C@H](OS(=O)(=O)O)[C@@H](OS(=O)(=O)O)[C@@H]1O[C@H]1O[C@H](COS(=O)(=O)O)[C@@H](OS(=O)(=O)O)[C@H](OS(=O)(=O)O)[C@H]1OS(=O)(=O)O [4,4'-Bis-[4-O-α-D-glucopyranosyl-β-D-glucopyranosyl-1-thio]-1,1'-biphenylene, tetradecakis(H-sulfate), tetradecasodium salt]	2 Wells	
12 Wells	O=S(=O)(O)OC[C@H]1O[C@@H](Sc2cccc(S[C@@H]3O[C@H](COS(=O)(=O)O)[C@@H](O[C@H]4O[C@H](COS(=O)(=O)O)[C@@H](OS(=O)(=O)O)[C@H](OS(=O)(=O)O)[C@H]4OS(=O)(=O)O)[C@H](OS(=O)(=O)O)[C@H]3OS(=O)(=O)O)c2)[C@H](OS(=O)(=O)O)[C@@H](OS(=O)(=O)O)[C@@H]1O[C@H]1O[C@H](COS(=O)(=O)O)[C@@H](OS(=O)(=O)O)[C@H](OS(=O)(=O)O)[C@H]1OS(=O)(=O)O [1,3-Bis-[4-O-α-D-glucopyranosyl-β-D-glucopyranosyl-1-thio]-phenylene, tetradecakis(H-sulfate),tetradecasodium salt]	0.9 Wells	
	pentosanpolysulfoester		anticomplementary activity
